Results on one molecule are retold here after patent US11725011B2, “Bicyclic urea kinase inhibitors and uses thereof” (The Broad Institute, Inc., priority 2016, dated 2023).

Common to all, as to experiment: KINOMEscan
What all share (format): binding
Common to all, as to details: 1 uM

In assay [1] the target is CSNK1E (Homo sapiens (Human), UniProt P49674).
Assay [2] has as its target JNK3 (Homo sapiens (Human), UniProt P53779).
The target of assay [3] is NLK (Homo sapiens (Human), UniProt Q9UBE8).
Assay [4] addresses PAK6 (Homo sapiens (Human), UniProt Q9NQU5).
The target of assay [5] is PCTK1 (Homo sapiens (Human), UniProt Q00536).
The target in assay [6] is PDGFRB (Homo sapiens (Human), UniProt P09619).
For assay [7], the target named is PIM2 (Homo sapiens (Human), UniProt Q9P1W9).
In assay [8] the target is PKN2 (Homo sapiens (Human), UniProt Q16513).
The target of assay [9] is RPS6KA4 (Kin.Dom.1-N-terminal) (Homo sapiens (Human), UniProt O75676).
The target in assay [10] is RSK2 (Kin.Dom.1-N-terminal) (Homo sapiens (Human), UniProt P51812).
Assay [11] concerns the target SRC (Homo sapiens (Human), UniProt P12931).
The target in assay [12] is TYK2 (JH1domain-catalytic) (Homo sapiens (Human), UniProt P29597).

CSNK1E, sequence (P49674 whole entry): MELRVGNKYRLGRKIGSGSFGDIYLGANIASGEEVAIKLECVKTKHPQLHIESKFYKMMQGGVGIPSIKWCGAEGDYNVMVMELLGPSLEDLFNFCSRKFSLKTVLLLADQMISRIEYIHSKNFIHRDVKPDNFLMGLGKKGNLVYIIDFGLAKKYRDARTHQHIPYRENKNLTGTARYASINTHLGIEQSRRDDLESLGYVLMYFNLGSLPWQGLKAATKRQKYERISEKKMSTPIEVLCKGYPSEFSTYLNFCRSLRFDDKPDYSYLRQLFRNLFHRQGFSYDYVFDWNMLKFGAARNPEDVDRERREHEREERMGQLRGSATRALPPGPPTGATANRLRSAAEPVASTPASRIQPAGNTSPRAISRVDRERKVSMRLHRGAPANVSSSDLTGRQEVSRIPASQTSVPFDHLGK
PKN2, sequence (Q16513 whole entry): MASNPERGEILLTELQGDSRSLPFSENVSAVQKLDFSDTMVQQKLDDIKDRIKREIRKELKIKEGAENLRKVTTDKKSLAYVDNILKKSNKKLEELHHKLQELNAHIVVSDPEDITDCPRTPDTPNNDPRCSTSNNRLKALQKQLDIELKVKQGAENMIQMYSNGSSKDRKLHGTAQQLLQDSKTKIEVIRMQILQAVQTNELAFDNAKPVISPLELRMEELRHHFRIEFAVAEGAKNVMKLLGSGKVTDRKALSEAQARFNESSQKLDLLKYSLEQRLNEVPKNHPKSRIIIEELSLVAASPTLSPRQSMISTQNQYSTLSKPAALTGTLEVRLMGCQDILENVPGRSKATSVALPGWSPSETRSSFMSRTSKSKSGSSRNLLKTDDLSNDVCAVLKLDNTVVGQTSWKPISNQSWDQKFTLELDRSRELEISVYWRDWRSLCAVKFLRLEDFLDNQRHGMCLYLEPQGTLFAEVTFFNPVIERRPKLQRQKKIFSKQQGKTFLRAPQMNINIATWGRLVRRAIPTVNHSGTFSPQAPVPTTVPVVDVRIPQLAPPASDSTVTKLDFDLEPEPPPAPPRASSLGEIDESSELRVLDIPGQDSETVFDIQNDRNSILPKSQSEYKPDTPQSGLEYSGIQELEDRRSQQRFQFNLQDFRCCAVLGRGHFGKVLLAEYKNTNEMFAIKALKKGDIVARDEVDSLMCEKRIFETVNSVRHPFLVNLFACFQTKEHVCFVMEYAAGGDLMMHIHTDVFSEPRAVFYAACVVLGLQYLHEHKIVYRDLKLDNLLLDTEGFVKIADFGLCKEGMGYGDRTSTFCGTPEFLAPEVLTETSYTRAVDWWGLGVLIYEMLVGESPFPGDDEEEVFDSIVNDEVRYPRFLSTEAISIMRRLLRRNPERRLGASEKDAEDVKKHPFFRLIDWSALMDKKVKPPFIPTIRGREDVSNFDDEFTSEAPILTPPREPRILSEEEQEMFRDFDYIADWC
JNK3, sequence (P53779 whole entry): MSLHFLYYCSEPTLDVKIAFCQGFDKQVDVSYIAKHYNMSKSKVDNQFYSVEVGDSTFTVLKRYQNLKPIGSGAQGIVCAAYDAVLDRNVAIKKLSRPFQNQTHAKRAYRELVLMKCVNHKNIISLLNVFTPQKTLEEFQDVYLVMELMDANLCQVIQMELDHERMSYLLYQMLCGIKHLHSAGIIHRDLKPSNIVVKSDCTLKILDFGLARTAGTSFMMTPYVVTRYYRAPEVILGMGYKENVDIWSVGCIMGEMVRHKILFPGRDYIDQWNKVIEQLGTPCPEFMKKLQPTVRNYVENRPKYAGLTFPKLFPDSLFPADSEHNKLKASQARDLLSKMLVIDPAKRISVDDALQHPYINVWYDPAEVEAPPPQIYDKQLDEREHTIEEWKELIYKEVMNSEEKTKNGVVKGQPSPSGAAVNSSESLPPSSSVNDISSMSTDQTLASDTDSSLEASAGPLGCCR
NLK, sequence (Q9UBE8 whole entry): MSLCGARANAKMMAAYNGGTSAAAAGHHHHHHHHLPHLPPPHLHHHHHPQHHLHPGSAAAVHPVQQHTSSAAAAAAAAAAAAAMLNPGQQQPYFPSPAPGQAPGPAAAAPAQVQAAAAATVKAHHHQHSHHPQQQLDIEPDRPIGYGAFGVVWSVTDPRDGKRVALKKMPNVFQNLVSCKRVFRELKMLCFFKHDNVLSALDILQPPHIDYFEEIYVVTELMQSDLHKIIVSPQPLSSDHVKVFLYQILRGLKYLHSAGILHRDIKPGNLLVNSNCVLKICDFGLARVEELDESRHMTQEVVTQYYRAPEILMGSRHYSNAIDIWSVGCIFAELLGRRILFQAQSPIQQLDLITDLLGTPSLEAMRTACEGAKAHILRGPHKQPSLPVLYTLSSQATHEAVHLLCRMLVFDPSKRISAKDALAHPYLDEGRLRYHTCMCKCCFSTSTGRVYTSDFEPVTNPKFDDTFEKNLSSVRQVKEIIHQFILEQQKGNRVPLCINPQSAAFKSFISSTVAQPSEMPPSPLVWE
PIM2, sequence (Q9P1W9 whole entry): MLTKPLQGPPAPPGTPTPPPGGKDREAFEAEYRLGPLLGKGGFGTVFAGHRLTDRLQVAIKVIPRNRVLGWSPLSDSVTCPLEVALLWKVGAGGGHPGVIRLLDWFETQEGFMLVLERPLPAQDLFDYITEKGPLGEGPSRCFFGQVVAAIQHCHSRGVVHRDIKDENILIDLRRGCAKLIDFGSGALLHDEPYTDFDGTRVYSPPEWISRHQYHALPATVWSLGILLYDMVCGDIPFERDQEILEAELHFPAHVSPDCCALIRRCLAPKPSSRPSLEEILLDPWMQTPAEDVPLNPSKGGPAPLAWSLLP
RPS6KA4 (Kin.Dom.1-N-terminal), sequence (O75676 33-301): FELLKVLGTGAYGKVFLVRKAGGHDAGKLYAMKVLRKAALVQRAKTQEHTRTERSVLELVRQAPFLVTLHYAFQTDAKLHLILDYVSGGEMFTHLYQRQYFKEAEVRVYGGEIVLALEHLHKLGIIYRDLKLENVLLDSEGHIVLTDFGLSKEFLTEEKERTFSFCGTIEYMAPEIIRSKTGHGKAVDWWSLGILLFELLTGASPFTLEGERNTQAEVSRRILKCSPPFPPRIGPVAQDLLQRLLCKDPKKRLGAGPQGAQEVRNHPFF
SRC, sequence (P12931 whole entry, looked up): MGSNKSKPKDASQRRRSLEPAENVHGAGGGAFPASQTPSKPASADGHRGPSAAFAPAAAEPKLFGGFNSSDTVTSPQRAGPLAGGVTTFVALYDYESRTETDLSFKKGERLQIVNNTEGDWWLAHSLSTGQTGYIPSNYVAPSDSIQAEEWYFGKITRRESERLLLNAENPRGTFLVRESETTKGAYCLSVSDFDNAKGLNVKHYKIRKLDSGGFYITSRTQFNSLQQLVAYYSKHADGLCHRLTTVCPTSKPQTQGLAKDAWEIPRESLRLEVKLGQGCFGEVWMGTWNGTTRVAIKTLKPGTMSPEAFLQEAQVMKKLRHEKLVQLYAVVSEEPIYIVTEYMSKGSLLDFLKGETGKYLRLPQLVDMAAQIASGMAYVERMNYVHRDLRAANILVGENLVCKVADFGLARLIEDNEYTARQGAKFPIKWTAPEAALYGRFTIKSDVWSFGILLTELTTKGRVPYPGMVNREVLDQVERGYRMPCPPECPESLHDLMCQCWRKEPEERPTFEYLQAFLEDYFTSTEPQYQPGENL
PCTK1, sequence (Q00536 whole entry): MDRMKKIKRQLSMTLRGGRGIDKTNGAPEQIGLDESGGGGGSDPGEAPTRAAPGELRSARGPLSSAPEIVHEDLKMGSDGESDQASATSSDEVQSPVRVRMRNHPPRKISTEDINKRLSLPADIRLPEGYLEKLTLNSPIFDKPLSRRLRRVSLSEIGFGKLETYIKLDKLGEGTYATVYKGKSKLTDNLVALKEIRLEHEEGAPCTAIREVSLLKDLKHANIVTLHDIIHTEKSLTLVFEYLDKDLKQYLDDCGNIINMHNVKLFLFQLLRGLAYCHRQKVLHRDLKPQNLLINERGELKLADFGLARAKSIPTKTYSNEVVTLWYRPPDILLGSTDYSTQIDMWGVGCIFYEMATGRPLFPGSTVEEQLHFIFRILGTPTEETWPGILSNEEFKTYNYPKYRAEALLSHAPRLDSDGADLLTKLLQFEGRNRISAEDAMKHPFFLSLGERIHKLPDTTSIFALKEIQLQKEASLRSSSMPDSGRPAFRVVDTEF
RSK2 (Kin.Dom.1-N-terminal), sequence (P51812 68-327): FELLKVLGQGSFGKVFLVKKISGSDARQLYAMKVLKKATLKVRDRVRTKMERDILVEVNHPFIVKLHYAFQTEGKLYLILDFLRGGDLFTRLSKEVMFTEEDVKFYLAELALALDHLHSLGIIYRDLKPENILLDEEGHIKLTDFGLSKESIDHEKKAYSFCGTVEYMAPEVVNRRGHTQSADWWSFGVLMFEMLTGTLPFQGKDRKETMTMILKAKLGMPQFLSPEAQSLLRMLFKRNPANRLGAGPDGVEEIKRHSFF
PAK6, sequence (Q9NQU5 whole entry): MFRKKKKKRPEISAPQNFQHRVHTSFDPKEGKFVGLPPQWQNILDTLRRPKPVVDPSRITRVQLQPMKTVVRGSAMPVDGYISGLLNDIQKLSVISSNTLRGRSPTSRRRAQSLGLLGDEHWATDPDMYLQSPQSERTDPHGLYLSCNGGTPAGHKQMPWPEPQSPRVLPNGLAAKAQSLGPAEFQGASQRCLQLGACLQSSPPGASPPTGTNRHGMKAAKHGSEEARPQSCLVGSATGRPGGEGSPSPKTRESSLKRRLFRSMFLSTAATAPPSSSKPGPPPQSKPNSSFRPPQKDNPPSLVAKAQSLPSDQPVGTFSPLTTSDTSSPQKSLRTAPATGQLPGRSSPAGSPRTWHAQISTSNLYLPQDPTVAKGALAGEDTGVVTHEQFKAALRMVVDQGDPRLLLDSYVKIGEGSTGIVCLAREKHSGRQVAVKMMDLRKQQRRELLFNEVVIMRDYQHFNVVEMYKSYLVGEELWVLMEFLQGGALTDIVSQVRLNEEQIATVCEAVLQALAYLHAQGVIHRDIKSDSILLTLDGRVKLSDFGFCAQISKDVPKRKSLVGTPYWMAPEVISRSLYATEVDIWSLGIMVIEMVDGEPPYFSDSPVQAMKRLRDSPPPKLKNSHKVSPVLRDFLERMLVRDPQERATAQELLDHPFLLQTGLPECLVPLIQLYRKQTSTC

As to `COc1ccc(N2C(=O)N(c3c(C)cccc3C)Cc3cnc(Nc4ccc(N5CCN(C)CC5)cc4)nc32)c(OC)c1` [HG-11-136-01], in assay [1], the “KINOMEscan CSNK1E” value was found to be 59. Moreover, the “KINOMEscan JNK3” value in assay [2] turned out to be 32. Further, the “KINOMEscan NLK” value in assay [3] is on record as 7.6. The “KINOMEscan PAK6” value in [4] is 37. In addition, in [5], the “KINOMEscan PCTK1” value was found to be 73. Besides, the “KINOMEscan PDGFRB” value in assay [6] is recorded as 0. The “KINOMEscan PIM2” value in [7] turned out to be 100. The “KINOMEscan PKN2” value in assay [8] is 94. The “KINOMEscan RPS6KA4 (Kin.Dom.1-N-terminal)” value in assay [9] is 79. The “KINOMEscan RSK2 (Kin.Dom.1-N-terminal)” value in [10] was found to be 12. The “KINOMEscan SRC” value in assay [11] is on record as 0.15. Besides, the “KINOMEscan TYK2 (JH1domain-catalytic)” value in assay [12] turned out to be 5.6.
